Source: ChEMBL document CHEMBL1144455, “A small molecule-kinase interaction map for clinical kinase inhibitors” (Nat Biotechnol, 2005)

How the values were obtained:
[1] = target: T1, Serine/threonine-protein kinase 17A (Homo sapiens, UniProt Q9UEE5)
T1 sequence (Q9UEE5 whole entry): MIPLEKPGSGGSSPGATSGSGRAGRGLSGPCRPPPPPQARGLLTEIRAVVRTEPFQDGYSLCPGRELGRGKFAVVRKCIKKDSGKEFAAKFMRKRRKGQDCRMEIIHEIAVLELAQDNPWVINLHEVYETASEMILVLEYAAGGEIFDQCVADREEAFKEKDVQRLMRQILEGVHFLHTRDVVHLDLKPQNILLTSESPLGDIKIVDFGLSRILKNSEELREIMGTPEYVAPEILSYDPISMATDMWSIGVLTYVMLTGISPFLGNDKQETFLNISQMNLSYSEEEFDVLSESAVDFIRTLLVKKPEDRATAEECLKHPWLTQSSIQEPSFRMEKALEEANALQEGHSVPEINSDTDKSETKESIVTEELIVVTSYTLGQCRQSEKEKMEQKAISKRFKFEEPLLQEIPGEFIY

[2] = target: Serine/threonine-protein kinase PAK 6 (Homo sapiens, UniProt Q9NQU5)
[3] = target: Ephrin type-A receptor 5 (Homo sapiens, UniProt P54756)
[4] = target: T2, Serine/threonine-protein kinase 17B (Homo sapiens, UniProt O94768)
T2 sequence (O94768 whole entry): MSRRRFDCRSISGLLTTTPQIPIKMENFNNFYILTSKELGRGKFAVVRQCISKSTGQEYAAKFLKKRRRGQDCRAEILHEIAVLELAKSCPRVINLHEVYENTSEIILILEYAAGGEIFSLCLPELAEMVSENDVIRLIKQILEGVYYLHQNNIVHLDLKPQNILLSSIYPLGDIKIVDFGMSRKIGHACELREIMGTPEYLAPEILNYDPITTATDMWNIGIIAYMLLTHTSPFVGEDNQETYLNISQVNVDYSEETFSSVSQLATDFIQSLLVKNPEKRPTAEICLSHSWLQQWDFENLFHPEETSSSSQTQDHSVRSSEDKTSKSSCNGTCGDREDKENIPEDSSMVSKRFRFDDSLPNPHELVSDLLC

[5] = target: T3, Aurora kinase C (Homo sapiens, UniProt Q9UQB9)
T3 sequence (Q9UQB9 whole entry): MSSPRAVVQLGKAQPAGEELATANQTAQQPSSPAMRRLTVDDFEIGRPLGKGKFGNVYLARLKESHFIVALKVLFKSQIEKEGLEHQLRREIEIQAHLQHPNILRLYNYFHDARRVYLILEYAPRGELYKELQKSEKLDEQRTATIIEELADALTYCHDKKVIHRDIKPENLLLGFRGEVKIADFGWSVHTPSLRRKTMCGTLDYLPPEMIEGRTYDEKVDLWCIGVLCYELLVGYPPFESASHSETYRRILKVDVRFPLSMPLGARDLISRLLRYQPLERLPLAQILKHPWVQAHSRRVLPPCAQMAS

[6] = target: Calcium/calmodulin-dependent protein kinase type 1 (Homo sapiens, UniProt Q14012)
[7] = target: Tyrosine-protein kinase JAK1 (Homo sapiens, UniProt P23458)
[8] = target: Tyrosine-protein kinase CSK (Homo sapiens, UniProt P41240)
[9] = target: Mast/stem cell growth factor receptor Kit (Homo sapiens, UniProt P10721)
[10] = target: Platelet-derived growth factor receptor beta (Homo sapiens, UniProt P09619)
[11] = target: Protein-tyrosine kinase 6 (Homo sapiens, UniProt Q13882)
[12] = target: Tyrosine-protein kinase ABL1 (Homo sapiens, UniProt P00519, T315I)
[13] = target: T4, Ephrin type-A receptor 6 (Homo sapiens, UniProt Q9UF33)
T4 sequence (Q9UF33 whole entry): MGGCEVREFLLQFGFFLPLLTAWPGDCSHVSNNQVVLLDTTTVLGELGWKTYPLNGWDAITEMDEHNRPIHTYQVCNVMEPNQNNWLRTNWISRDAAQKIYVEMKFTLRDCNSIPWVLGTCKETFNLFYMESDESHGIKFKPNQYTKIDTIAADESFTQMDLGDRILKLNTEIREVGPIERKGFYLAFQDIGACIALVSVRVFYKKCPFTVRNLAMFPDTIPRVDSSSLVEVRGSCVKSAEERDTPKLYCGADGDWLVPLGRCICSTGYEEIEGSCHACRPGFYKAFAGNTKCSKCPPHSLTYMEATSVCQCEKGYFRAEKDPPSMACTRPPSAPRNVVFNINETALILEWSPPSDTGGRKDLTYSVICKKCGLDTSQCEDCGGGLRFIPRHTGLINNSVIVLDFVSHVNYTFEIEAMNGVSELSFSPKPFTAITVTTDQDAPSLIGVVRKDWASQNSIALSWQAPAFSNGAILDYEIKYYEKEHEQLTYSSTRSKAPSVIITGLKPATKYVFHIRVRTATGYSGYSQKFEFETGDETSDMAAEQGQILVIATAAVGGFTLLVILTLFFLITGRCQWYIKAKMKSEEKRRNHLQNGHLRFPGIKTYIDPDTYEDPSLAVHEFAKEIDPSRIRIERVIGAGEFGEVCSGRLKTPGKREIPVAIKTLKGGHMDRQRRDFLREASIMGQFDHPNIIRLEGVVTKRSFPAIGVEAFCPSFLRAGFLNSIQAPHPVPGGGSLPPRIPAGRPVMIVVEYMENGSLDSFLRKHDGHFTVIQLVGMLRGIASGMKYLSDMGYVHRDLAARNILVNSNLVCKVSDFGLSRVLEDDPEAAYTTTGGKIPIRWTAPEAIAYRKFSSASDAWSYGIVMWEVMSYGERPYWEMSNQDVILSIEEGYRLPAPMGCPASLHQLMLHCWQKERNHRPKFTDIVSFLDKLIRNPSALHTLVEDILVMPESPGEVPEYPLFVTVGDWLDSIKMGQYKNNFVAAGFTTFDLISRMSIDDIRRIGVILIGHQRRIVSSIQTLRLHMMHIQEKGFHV

[14] = target: BMP-2-inducible protein kinase (Homo sapiens, UniProt Q9NSY1)
[15] = target: AP2-associated protein kinase 1 (Homo sapiens, UniProt Q2M2I8)

Measured: Kd

Chain of Ephrin type-A receptor 5 (P54756 whole entry): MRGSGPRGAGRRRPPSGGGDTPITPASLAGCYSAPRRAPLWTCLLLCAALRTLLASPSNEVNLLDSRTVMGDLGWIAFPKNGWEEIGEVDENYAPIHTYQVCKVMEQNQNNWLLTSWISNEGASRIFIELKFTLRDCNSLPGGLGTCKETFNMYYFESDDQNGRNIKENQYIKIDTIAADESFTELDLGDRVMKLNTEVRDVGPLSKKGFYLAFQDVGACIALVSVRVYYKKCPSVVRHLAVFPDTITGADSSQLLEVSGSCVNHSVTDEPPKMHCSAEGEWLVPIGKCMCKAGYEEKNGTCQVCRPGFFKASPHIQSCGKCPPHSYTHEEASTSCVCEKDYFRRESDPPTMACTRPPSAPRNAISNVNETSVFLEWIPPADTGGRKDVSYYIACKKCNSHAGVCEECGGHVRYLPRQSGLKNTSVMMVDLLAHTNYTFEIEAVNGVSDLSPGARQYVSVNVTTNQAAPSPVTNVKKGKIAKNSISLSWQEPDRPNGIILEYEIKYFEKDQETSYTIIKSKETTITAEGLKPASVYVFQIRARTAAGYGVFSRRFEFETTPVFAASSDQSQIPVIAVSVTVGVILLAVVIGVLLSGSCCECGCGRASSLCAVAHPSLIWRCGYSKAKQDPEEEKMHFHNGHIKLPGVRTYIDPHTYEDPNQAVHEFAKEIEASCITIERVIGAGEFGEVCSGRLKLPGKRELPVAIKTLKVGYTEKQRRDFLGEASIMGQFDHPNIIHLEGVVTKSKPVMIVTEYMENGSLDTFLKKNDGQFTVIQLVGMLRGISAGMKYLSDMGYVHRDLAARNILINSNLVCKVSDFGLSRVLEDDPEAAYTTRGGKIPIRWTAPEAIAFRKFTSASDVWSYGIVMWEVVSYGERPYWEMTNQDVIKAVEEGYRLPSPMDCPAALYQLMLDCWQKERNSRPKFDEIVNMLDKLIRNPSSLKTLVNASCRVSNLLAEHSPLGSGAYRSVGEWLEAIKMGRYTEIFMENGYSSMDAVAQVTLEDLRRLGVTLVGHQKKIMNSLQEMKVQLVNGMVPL
Chain of Tyrosine-protein kinase CSK (P41240 whole entry): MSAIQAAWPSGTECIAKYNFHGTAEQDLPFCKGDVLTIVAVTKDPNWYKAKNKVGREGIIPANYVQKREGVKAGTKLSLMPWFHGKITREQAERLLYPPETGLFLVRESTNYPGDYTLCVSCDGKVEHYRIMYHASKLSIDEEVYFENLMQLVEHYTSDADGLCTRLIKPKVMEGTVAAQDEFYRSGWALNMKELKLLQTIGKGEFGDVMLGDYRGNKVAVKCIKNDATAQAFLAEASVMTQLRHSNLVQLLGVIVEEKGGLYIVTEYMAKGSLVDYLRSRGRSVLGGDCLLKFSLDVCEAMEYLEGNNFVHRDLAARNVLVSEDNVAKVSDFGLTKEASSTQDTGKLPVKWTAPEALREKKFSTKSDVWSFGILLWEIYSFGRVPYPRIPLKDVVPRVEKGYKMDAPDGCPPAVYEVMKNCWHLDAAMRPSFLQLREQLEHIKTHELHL
Chain of AP2-associated protein kinase 1 (Q2M2I8 whole entry): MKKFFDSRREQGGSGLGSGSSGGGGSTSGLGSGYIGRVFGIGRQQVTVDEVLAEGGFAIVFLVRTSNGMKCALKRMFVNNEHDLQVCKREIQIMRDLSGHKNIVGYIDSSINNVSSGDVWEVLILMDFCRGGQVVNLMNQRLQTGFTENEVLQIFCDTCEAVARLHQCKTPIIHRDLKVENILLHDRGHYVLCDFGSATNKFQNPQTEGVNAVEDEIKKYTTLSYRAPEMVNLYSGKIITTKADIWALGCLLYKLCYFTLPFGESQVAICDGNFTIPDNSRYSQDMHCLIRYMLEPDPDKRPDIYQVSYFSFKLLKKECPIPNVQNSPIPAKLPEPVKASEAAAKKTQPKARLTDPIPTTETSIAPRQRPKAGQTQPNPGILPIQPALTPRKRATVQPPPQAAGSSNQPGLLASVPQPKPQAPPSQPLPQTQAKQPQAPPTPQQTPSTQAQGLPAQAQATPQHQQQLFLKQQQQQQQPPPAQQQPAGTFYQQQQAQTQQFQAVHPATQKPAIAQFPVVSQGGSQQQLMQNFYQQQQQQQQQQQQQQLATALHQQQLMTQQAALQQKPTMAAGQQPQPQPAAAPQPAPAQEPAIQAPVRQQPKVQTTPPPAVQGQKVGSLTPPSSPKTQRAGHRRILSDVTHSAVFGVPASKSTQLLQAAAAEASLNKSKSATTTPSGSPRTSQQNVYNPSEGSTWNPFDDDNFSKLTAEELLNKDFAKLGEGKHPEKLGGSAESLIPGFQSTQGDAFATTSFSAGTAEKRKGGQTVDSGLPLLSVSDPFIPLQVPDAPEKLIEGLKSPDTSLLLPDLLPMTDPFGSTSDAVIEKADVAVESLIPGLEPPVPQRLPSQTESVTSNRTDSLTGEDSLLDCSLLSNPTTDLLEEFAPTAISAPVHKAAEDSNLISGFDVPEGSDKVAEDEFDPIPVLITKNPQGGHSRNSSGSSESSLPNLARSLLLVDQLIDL
Chain of Calcium/calmodulin-dependent protein kinase type 1 (Q14012 whole entry): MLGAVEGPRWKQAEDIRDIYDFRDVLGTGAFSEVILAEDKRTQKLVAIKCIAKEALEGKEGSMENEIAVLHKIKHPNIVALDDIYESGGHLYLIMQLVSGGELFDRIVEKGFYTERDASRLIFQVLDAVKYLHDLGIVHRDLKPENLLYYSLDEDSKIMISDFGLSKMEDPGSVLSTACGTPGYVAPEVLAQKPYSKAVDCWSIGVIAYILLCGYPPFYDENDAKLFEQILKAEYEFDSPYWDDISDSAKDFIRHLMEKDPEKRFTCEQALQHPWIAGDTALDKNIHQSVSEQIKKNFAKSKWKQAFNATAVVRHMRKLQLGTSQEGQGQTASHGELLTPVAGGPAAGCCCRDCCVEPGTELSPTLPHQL
Chain of BMP-2-inducible protein kinase (Q9NSY1 whole entry): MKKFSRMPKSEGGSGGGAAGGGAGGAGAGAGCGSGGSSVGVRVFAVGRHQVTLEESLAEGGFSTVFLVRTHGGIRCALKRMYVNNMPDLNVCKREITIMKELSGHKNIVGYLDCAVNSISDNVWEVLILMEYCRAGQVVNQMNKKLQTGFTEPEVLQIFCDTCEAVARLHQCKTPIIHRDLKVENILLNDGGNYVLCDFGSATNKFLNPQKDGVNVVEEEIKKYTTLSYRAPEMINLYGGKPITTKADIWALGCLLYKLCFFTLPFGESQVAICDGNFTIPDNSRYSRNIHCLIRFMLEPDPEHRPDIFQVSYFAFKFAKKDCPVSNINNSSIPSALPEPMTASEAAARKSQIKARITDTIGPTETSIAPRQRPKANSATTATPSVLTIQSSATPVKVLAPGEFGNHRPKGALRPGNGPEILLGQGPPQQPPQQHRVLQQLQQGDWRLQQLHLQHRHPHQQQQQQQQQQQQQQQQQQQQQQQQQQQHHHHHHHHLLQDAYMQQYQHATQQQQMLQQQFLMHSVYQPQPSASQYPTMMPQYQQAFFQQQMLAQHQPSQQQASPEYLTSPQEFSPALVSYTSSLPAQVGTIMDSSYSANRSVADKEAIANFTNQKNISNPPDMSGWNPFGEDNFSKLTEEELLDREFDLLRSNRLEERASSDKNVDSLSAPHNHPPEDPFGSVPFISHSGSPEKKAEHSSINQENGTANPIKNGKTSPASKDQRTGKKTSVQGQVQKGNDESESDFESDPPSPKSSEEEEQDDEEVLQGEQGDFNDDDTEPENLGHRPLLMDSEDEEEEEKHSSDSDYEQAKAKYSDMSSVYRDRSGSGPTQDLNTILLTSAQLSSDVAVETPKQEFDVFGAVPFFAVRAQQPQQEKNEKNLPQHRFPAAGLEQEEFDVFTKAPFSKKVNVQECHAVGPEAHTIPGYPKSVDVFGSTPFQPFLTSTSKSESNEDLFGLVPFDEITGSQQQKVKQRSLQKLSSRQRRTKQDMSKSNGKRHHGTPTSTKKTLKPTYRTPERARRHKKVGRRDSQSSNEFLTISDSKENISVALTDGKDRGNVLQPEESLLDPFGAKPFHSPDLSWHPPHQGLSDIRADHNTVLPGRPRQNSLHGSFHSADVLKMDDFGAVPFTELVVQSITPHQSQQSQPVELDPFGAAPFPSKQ
Chain of Serine/threonine-protein kinase PAK 6 (Q9NQU5 whole entry): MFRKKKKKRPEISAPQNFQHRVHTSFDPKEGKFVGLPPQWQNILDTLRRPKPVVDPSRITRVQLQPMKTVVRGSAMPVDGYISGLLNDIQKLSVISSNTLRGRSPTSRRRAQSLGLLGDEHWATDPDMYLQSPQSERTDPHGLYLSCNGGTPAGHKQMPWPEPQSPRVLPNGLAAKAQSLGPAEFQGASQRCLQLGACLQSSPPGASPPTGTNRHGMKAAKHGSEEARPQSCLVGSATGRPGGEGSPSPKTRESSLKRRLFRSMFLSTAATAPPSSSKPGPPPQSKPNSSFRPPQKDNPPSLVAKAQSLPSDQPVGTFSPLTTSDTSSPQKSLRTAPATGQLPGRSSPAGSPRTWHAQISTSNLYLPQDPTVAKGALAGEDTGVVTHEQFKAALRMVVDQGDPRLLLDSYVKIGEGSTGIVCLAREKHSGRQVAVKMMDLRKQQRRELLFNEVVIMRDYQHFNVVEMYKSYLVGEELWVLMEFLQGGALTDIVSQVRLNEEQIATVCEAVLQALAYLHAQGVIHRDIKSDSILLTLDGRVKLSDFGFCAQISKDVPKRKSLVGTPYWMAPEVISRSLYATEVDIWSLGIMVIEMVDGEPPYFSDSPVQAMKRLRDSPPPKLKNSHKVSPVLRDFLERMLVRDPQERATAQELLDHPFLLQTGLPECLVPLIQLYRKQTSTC

C#Cc1cccc(Nc2ncnc3cc(OCCOC)c(OCCOC)cc23)c1 [ERLOTINIB]
Not Active: [1] | [2] | [3] | [4] | [5] | [6] | [7] | [8] | [9] | [10] | [11]

COc1cc2c(N3CCN(C(=O)Nc4ccc(OC(C)C)cc4)CC3)ncnc2cc1OCCCN1CCCCC1 [TANDUTINIB]
Not Active: [12] | [13] | [1] | [14] | [2] | [3] | [4] | [15] | [5] | [6] | [7] | [8] | [11]

O=c1ncn2nc(Sc3ccc(F)cc3F)ccc2c1-c1c(Cl)cccc1Cl [NEFLAMAPIMOD]
Not Active: [12] | [13] | [1] | [14] | [2] | [4] | [15] | [5] | [6] | [7] | [8] | [9] | [11]

C[S+]([O-])c1ccc(-c2nc(-c3ccc(F)cc3)c(-c3ccncc3)[nH]2)cc1 (stereo not drawn) [SB-203580]
Not Active: [12] | [13] | [1] | [14] | [2] | [3] | [4] | [15] | [5] | [6] | [7] | [8] | [9] | [10]

Cc1ccc(NC(=O)c2ccc(CN3CCN(C)CC3)cc2)cc1Nc1nccc(-c2cccnc2)n1 [IMATINIB]
Not Active: [13] | [14] | [2] | [3] | [4] | [15] | [5] | [6] | [7] | [8] | [11]

CC[C@H](CO)Nc1nc(NCc2ccccc2)c2ncn(C(C)C)c2n1 [SELICICLIB]
Not Active: [12] | [13] | [1] | [14] | [2] | [3] | [4] | [15] | [5] | [6] | [7] | [8] | [9] | [10] | [11]

Oc1ccc(-c2nc(-c3ccc(F)cc3)c(-c3ccncc3)[nH]2)cc1 [SB-202190]
Not Active: [12] | [13] | [1] | [14] | [2] | [3] | [4] | [15] | [5] | [6] | [7] | [8] | [9] | [10]

CCOc1cc2ncc(C#N)c(Nc3ccc(F)c(Cl)c3)c2cc1NC(=O)/C=C/CN(C)C [PELITINIB]
Not Active: [2] | [5] | [6] | [7] | [9] | [10] | [11]

Oc1c2ccccc2c2c3c(cccc13)N=N2 [SP-600125]
Not Active: [12] | [13] | [2] | [3] | [4] | [7] | [8] | [9] | [10] | [11]
